{"source": "patent US11352316B2", "about": "“Opioid receptor modulators and products and methods related thereto” (priority 2018, dated 2022)", "key": {"Male Sprague-Dawley rats": {"tested_on": "Male Sprague-Dawley rats", "assay": "Hot plate assay", "format": "in vivo", "conditions": "rat, SC", "protocol": "Male Sprague-Dawley rats weighing 275-300 grams were used in the study, n=8-10 per group. Animals are injected SC with 0.9% normal saline solution. At 15, 45, and 80 min after the injection, animals were placed onto a hotplate set to 52 degrees centigrade, and baseline latency is recorded (baseline latency=average time to 2nd withdrawal response consisting of either a lick of a rear paw, shaking a rear paw, backwards walking or jumping). A day later animals were injected SC with test compounds either in vehicle solution, or with a mix of compounds in solution. Next the test latency was recorded (test latency=time to withdrawal on the hotplate measured at 15, 45, 80, 120, 180 and 240 min using the procedure described). Times were then converted to % maximum possible effect (% MPE)=(test_latecy−baseline_latency)/(30 sec−baseline_latency); where 30 sec is the cutoff where the animal is removed if no response ifs observed as it is the time point at which injury is expected to occur."}, "mu opioid receptor (MOR)": {"molecular_target": "T1, mu opioid receptor (MOR) (Homo sapiens, UniProt P35372)", "T1 construct": "host or cells: CHO-K1", "T1 sequence (P35372 whole entry)": "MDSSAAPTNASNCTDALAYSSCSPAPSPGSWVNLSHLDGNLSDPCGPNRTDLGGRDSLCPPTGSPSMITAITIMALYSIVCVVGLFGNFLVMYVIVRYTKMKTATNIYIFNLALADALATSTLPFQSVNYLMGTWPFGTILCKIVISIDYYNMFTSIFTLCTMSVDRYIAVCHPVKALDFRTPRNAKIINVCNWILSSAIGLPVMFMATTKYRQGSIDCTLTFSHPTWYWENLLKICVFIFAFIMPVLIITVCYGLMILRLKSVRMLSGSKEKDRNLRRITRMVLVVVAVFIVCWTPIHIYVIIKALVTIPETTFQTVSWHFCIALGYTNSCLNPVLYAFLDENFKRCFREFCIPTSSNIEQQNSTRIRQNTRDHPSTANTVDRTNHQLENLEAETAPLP", "assay": "MOR GTPγS agonist assay (membranes, SPA beads)", "format": "biochemical", "conditions": "membranes of CHO-K1 cells over-expressing MOR", "description": "Membranes obtained from the stable cell lines over-expressing MOR were subjected to GTPγS assay using SPA beads (Perkin Elmer, Cat #RPNQ0001)."}}}
{"smiles": "CN(C)[C@H](CNC(=O)[C@@H]1C[C@]1(C)c1ccccc1)Cc1ccc(O)cc1Cl", "note": "[Compound B-15, (1R,2S)—N—((S)-3-(2-chloro-4-hydroxyphenyl)-2-(dimethylamino)propyl)-2-methyl-2-phenylcyclopropane-1-carboxamide]", "values": [{"measurement": "effect on the analgesic activity of agonist Compound B-56 in the hotplate test", "setting": "Male Sprague-Dawley rats; co-dosed with Compound B-56, FIG. 1", "result": "blocks in vivo the analgesic activity of the agonist Compound B-56"}, {"measurement": "effect on its own in the hotplate test", "setting": "Male Sprague-Dawley rats; dosed alone, FIG. 1", "result": "no effect on its own"}]}
{"smiles": "Cc1cc(O)ccc1C[C@@H](CNC(=O)[C@@H]1C[C@@]1(C)c1ccccc1)N(C)C", "note": "[Compound B-56, (1R,2R)—N—((S)-2-(dimethylamino)-3-(4-hydroxy-2-methylphenyl)propyl)-2-methyl-2-phenylcyclopropane-1-carboxamide]", "values": [{"measurement": "analgesic activity in the hotplate test (time to withdrawal response, % MPE)", "setting": "Male Sprague-Dawley rats; hotplate 52 degrees centigrade, FIG. 1", "result": "analgesic"}]}
{"smiles": "CNC(=O)c1ccc(C[C@@H](CNC(=O)c2ccc(Cl)cc2Cl)N(C)C)cc1F", "note": "[Compound C-37, (S)-2,4-dichloro-N-(2-(dimethylamino)-3-(3-fluoro-4-(methylcarbamoyl)phenyl)propyl) benzamide]", "values": [{"measurement": "EC50", "setting": "mu opioid receptor (MOR)", "result": "< 100", "unit": "nM"}]}
{"smiles": "CNC(=O)c1cc(C)c(C[C@@H](CNC(=O)c2ccccc2OC)N(C)C)c(C)c1", "note": "[Compound C-68, (S)-4-(2-(dimethylamino)-3-(2-methoxybenzamido)propyl)-N,3,5-trimethylbenzamide]", "values": [{"measurement": "EC50", "setting": "mu opioid receptor (MOR)", "result": "< 100", "unit": "nM"}]}
